We go through 3 compounds from ChEMBL document CHEMBL3046863, “Chemical composition and antifungal activity of essential oil of Chrysactinia mexicana gray” (J Agric Food Chem, 2005).

What all share (assay type): functional, organism-based
The test system of test [1] is Aspergillus flavus. Kind of test: Antifungal activity against Aspergillus flavus assessed as inhibition of mycelial growth in dextrose sabouraud broth and Czapek agar at 0.4 mg/ml at 28 +/- 1 degC for 72 hr by dilution technique.
For test [2], the system named is Aspergillus flavus. Kind of test: Antifungal activity against Aspergillus flavus assessed as inhibition of mycelial growth in dextrose sabouraud broth and Czapek agar at 0.2 mg/ml at 28 +/- 1 degC for 72 hr by dilution technique.
In test [3] the test system is Aspergillus flavus. Kind of test: Antifungal activity against Aspergillus flavus assessed as inhibition of mycelial growth in dextrose sabouraud broth and Czapek agar at 0.6 mg/ml at 28 +/- 1 degC for 72 hr by dilution technique.
Test [4] relates to Aspergillus flavus. Kind of test: Antifungal activity against Aspergillus flavus assessed as inhibition of mycelial growth in dextrose sabouraud broth and Czapek agar at 0.1 mg/ml at 28 +/- 1 degC for 72 hr by dilution technique.
Test [5] concerns Aspergillus flavus. Kind of test: Antifungal activity against Aspergillus flavus assessed as inhibition of mycelial growth in dextrose sabouraud broth and Czapek agar at 0.3 mg/ml at 28 +/- 1 degC for 72 hr by dilution technique.
For test [6], the system named is Aspergillus flavus. Kind of test: Antifungal activity against Aspergillus flavus assessed as inhibition of mycelial growth in dextrose sabouraud broth and Czapek agar at 0.5 mg/ml at 28 +/- 1 degC for 72 hr by dilution technique.
Another test deals with Sclerotinia sclerotiorum. Kind of test: Antifungal activity against Sclerotinia sclerotiorum assessed as inhibition of mycelial growth in dextrose sabouraud broth and Czapek agar at 28 +/- 1 degC for 72 hr by dilution technique.

The source made the active and inactive calls. The calls are words filed in the database; no cut-off is given here.

Regarding `CC1=CC(=O)C(C(C)C)CC1` (centres undefined), the result in the test with Aspergillus flavus [1], in the test on Aspergillus flavus [2], in the test on Aspergillus flavus [4], in the test with Aspergillus flavus [5] and in the test with Aspergillus flavus [6] was inactive. In the test on Aspergillus flavus [3], the result was Active.

On to `C=CC(C)(CCC=C(C)C)OC(C)=O` (centres undefined) [LINALYL ACETATE], for which the outcome in the test on Aspergillus flavus [1], in the test on Aspergillus flavus [2], with Aspergillus flavus [3], in the test with Aspergillus flavus [4], in the test with Aspergillus flavus [5] and with Aspergillus flavus [6] was inactive. The EC50 in the test with Sclerotinia sclerotiorum is given as 569.62 uL/L.

Consider `CC12CCC(CC1)C(C)(C)O2`, for which the result in the test on Aspergillus flavus [1], with Aspergillus flavus [2], in the test on Aspergillus flavus [3], in the test on Aspergillus flavus [4], with Aspergillus flavus [5] and in the test with Aspergillus flavus [6] was inactive.
